A short description of data set [1]: Solubility of butaselen in water. It counts as physicochemical.
In data set [2] the test system is U87 brain glioma subcutaneous model. Description: Gavage administration experiment of U87 brain glioma subcutaneous model in Balb/c nude mice. The conditions noted are these: BS 90 mg/kg, oral administration (i.g., q.d.), 11 days. In kind it is in vivo. How it is done:
After 2 days of animal acclimation, qualified animals were retained and randomized into 6 groups, with 7 animals in each group. Mice were inoculated subcutaneously in right axillas with U87 cells at 2×10^6/mouse. Administration was started to be performed 12 days after inoculation, which was day 0 of treatment. Administration was performed for a total of 11 days.
A drug treatment regimen was as follows: Blank control group (0.5% CMC-Na, i.g., q.d.); TMZ group (30 mg/kg, i.g., q.d.); BSL group (10 mg/kg, i.g., q.d.); BSM group (90 mg/kg, i.g., q.d.); BSH group (180 mg/kg, i.g., q.d.); and BSM+TMZ group (30 mg/kg of TMZ, 90 mg/kg of BS, i.g., q.d.).
The general condition of the animals and the time of tumor occurrence were recorded daily during the experiment, a long diameter and a short diameter of tumors in the mice were recorded daily, and a tumor volume was calculated according to a formula: long diameter×(short diameter)^2×0.5236, and a body weight of the animals were measured every 3 days. After 18 days of administration, anesthesia was performed with chloral hydrate, and eyeballs were removed for blood collection. […] Distribution of the Se content in brain tissue was detected by Inductively coupled plasma-Mass Spectrometry (ICP-MS).

For data set [3] the test system is unchanged. Description: Administration by injection (intraperitoneal) experiment of U87 brain glioma subcutaneous model in Balb/c nude mice. It counts as in vivo. The source says:
After 2 days of animal acclimation, qualified animals were retained and randomized into 5 groups, with 6 animals in each group of a control group, a TMZ group, and a BS group. There were 5 animals in each group of the BS+TMZ treatment group and the BS+TMZ prevention group. Mice in the BS group were inoculated subcutaneously in right axillas with U87 cells at 2×10^6/mouse. Administration was started to be performed 14 days after inoculation, which was day 0 of treatment. Administration was performed for a total of 18 days.
A drug treatment regimen was as follows: Blank control group (0.9% NaCl, i.p., q.d.); TMZ group (10 mg/kg, i.p., qd.); BS group (30 mg/kg, i.p., q.d.); BS+TMZ treatment group (10 mg/kg of TMZ, i.p., qd., and 90 mg/kg of BS, i.g., q.d.); BS+TMZ prevention group (10 mg/kg of TMZ, i.p., qd., and 90 mg/kg of BS, i.g., q.d.). […] were injected into tail veins.
(§1) The general condition of the animals and the time of tumor occurrence were recorded daily during the experiment, a long diameter and a short diameter of tumors in the mice were recorded daily, and a tumor volume was calculated according to a formula: long diameter×(short diameter)^2×0.5236, and a body weight of the animals were measured every 3 days. After 18 days of administration, anesthesia was performed with chloral hydrate, and eyeballs were removed for blood collection. The mice were sacrificed, tumors, hearts, livers, spleens, lungs, kidneys, thymuses, whole brains, and intestines were rapidly isolated, blood stains were washed away with ice saline, the tumors, hearts, livers, spleens, lungs, kidneys, thymuses, whole brains, and intestines were wiped to be dry with filter paper, whether there were lesions in internal organs of the animals were observed, and the tumors, hearts, livers, spleens, lungs, kidneys, thymuses, whole brains, and intestines were weighed. A portion of tumor tissue was taken and stored in liquid nitrogen for RNA and protein extraction. Another portion of tumor tissue was placed in a tissue fixative solution for fixation. Distribution of the Se content in brain tissue was detected by Inductively coupled plasma-Mass Spectrometry (ICP-MS).
Female six-week-old Balb/c Nude mice were selected to establish an animal model and inoculated subcutaneously with U87 human-derived glioma cells at 2×10^6/mouse. Administration was started to be performed on day 14 after inoculation, and was continued to be performed for 18 days.
To compare the difference in efficacy between oral gavage administration and intraperitoneal injection administration, the control group, the TMZ group (10 mg/Kg) and the BS group (30 mg/Kg) were administered intraperitoneally once a day in this round of experiment. The mice in the control group were given 0.9% NaCl.
To compare the therapeutic efficacy and preventive efficacy of the combined application of BS and TMZ, combined administration groups were set in this round of experiment: a BS+TMZ treatment group (90 mg/Kg of BS&10 mg/Kg of TMZ) and a BS+TMZ prevention group (90 mg/Kg of B S& 10 mg/Kg of TMZ). The B S+TMZ treatment group was abbreviated as a BS+TMZ (A) group, and tumors with a volume of more than 20 mm^3 were normally formed in the mice on day 14 after U87 inoculation, and the administration was started to be performed to observe the efficacy of the combined use on inhibiting tumor proliferation. The BS+TMZ prevention group is abbreviated as a BS+TMZ (B) group, and tumors with a volume of less than 20 mm^3 were formed in the mice on day 14 after U87 inoculation, and the administration was started to observe the efficacy of the combined use on the prevention of tumor formation. The mice in the combined groups were administered by single daily oral gavage. The start time of administration was Day 1, a second day of administration was Day 2, and so on.

Data set [4] in a line: Distribution of BS in brain tissue of U87 nude mice by ICP-MS (selenium content). In kind it is in vivo. To be noted: Balb/c nude, mouse, BS 30 mg/kg, injection dosage form (intraperitoneal), after the experiment, calculated from selenium content. As to the method: as §1, with “A portion of tumor tissue was taken and stored in liquid nitrogen for RNA and protein extraction. Another portion of tumor tissue was placed in a tissue fixative solution for fixation.” left out
Brain tissues of the mice after the experiment of BS+TMZ gavage (90+10 mg/kg) and BS intraperitoneal injection (30 mg/kg) were taken and detected by ICP-MS. By detecting the selenium content per gram of brain tissue, the BS content per gram of brain tissue was calculated. […]

Data set [5] can be described thus: Distribution of BS in brain tissue of ICR mice after intraperitoneal injection, ICP-MS. It counts as in vivo. To be noted: female, mouse, ip, intraperitoneal injection 90 mg/kg. How it is done: The distribution of BS in mouse brain tissue was examined as follows: Brain glioma is located in the skull and has a special lesion location. Thus, it is critical whether a drug can cross the blood-brain barrier and act at the lesion site. In order to detect whether BS can reach brain tissue through the blood-brain barrier, female six-week-old ICR mice were selected for the study. The mice were intraperitoneally injected with 90 mg/kg of BS, and brain tissues before administration and brain tissues at 0.5 h, 1 h, 2 h and 3 h after administration were taken for ICP-MS detection. The BS content per gram of brain tissue was calculated by detecting the selenium content per gram of brain tissue.

The subject of data set [6] is high-grade astrocytoma in human spinal cord. Description: Subcutaneous patient-derived xenograft (PDX) mouse model of high-grade astrocytoma in human spinal cord. It counts as in vivo, NPG mice. The conditions noted are these: for tumor sizes at the end of the experiment: no unit at the values (tumor volume formula in mm^3), in mm³; for tumor volume inhibition rate: end of experiment. As to the method: • 1) Grouping of animals: the animals were subcutaneously inoculated with tumor tissue pieces, and after tumors were formed in the animals, the animals were grouped based on a principle of a similar mean tumor volume; • 2) Mode of administration: intraperitoneal injection of BS and TMZ (i.p., q.d.×17 days); • 3) Detection indexes: mouse body weight and subcutaneous tumor volume.
BS injections, with a drug content being 30 mg of BS and 90 mg of BS; and 1 mg of TMZ was weighed and dissolved in 1 ml of 0.5% CMC-Na and the obtained solution was uniformly dispersed by an ultrasound-assisted manner to obtain a TMZ drug solution, which was prepared immediately before use each time.
• Animal species: NPG mice, Animal grade: SPF grade, and Sex and number: female, 32 • Animal weight range: 20-25 g, Animal age range: 5-6 weeks old, and Animal source: Beijing Vitalstar Biotechnology Co., Ltd.
The animals were randomly divided into four groups according to Table 5, with 8 animals in each group of a control group, a BSL group, a BSH group and a TMZ group.
Tumor masses (2-3 mm^3) of high-grade astrocytoma in a human spinal cord were prepared and inoculated in right axillas of NPG mice, and after inoculation, a mouse status was routinely observed and the tumor size was measured. Screening was performed according to the tumor volume, animals with a tumor volume of 450 mm^3 were selected for the experiment, and those with an excessive tumor volume and no tumor formation were not selected. A total of 32 suitable tumor-bearing animals were screened for the experiment, and were divided into 4 experimental groups, with 8 mice in each group. The day of first administration was recorded as D1, a second day of administration was recorded as D2, and so on. All animals were administered through single daily intraperitoneal injection for 24 consecutive days.
During the experiment, a long diameter and a short diameter of the tumors in all the animals were measured daily. And a tumor volume (mm^3) was calculated and a formula was as follows: Tumor volume=0.5236×long diameter×short diameter×short diameter.
A general note: Xenograft models place foreign cells or tissue in a host animal.

A short description of data set [7]: Body weight and general condition of U87 tumor-bearing nude mice during administration. It counts as in vivo, Balb/c nude mice. How it is done: as §1
Data set [8] in a line: Body weight and clinical observation of NPG mice during administration. In kind it is in vivo. The conditions noted are these: BS 30 and 90 mg/kg, intraperitoneal injection. How it is done:
All animals were observed once a day during the experiment period. The observation content included death or dying, feces, a feeding status, a mental status, and behavioral activities, etc. If any abnormal situation was found, it was recorded in time. All animals were weighed once before grouping, three times per week after administration, and once before euthanasia.
No clinical abnormal symptoms or animal deaths due to drug toxicity were observed during this experiment.

[9] abbreviates: BS 30 mg/kg, intraperitoneal injection, q.d., 18 days, end of experiment.
The mark [10] stands for this setting: BS 30 mg/kg, intraperitoneal, end of experiment.
The mark [11] stands for this setting: TMZ 10 mg/kg, intraperitoneal, experiment in this group ended early on day 12.

Molecules are shown by their SMILES. ≈ marks a conversion by molar mass, not a printed value.

Usually solubility stands for the concentration that dissolves in the medium under given conditions. Low values mean little dissolved substance, high ones much dissolved substance.

Consider `O=c1c2ccccc2[se]n1CCCCn1[se]c2ccccc2c1=O` [BS, butaselen], for which, in data set [1], the solubility is about 0.15 µg/mL (≈ 0.333 µM). Moreover, the “Tumor volume (mm^3)” value is on record as 122.05±33.15 mm^3 in data set [2] and 105.18±66.62 mm^3 in data set [3] (setting [9]). The entries for the “Volume inhibition rate (%)” value in data set [2] and in data set [3] (setting [9]) were 78.87% and 81.12%, respectively. Besides, the “Tumor weight” value in data set [3] (setting [10]) was found to be 0.13 ± 0.08 g. The “Weight inhibition rate (%)” value in data set [3] (setting [10]) is recorded as 66.67%. Moreover, in data set [4], the concentration at 18 days is 121 ng/g. In data set [5] (0.5 h after administration), this compound came in with a concentration at 0.5 h of 439 ng/g. In data set [5] (1 h after administration), this compound displayed a concentration at 1 h of 372 ng/g. In data set [5] (2 h after administration (peak)), this compound returned a concentration at 2 h of 528 ng/g. Besides, in data set [5] (3 h after administration), the concentration at 3 h was determined as 419 ng/g. The “tumor sizes at the end of the experiment” value worked out at 4593.83±2725.69 in data set [6] (BS 30 mg/kg i.p. q.d.) and 2999.76±2191.03 in data set [6] (BS 90 mg/kg i.p. q.d.). The “tumor volume inhibition rate” value in data set [6] (high-dose BS group (90 mg/kg i.p.)) is 35.19%; in data set [6] (low-dose BS group (30 mg/kg i.p.)) it was -10.54%. Moreover, in data set [7] (BS group, BS+TMZ (A) and (B) groups, normal diet, activities, mental status), the “toxic and side effects on tumor-bearing nude mice” value is “no obvious toxic and side effects”. Also, the “toxic and side effects on the NPG mice” value in data set [8] is “no obvious toxic and side effects”. In data set [8] (NPG mice), the weight loss result is recorded as “no significant weight loss”.
In the case of `Cn1nnc2c(C(N)=O)ncn2c1=O` [TMZ, temozolomide, reference compound], in data set [3] (setting [11]), the “Tumor volume (mm^3)” value is 343.23±245.20 mm^3 and the “Tumor weight” value was determined as 0.19 ± 0.08 g. Also, the “tumor sizes at the end of the experiment” value in data set [6] (TMZ 5 mg/kg i.p. q.d.) is 2693.29±1682.23. Moreover, the “tumor volume inhibition rate” value in data set [6] (TMZ group (5 mg/kg i.p.)) was found to be 27.82%. Also, the “body weight of the mice” value in data set [7] (TMZ group (30 mg/Kg as printed), U87 tumor-bearing nude mice, group ended on day 12) is listed as “significantly decreased”.
